Target: T1, Acyl-CoA: Cholesterol Acyltransferase (ACAT) (Rattus norvegicus, UniProt Q7TQM4)
T1 construct: centrifuged at 105,000×g for 1 hour to pellet the microsomes; from tissue; host or cells: liver microsomes of male Sprague Dawley rats
T1 sequence (Q7TQM4 1-524): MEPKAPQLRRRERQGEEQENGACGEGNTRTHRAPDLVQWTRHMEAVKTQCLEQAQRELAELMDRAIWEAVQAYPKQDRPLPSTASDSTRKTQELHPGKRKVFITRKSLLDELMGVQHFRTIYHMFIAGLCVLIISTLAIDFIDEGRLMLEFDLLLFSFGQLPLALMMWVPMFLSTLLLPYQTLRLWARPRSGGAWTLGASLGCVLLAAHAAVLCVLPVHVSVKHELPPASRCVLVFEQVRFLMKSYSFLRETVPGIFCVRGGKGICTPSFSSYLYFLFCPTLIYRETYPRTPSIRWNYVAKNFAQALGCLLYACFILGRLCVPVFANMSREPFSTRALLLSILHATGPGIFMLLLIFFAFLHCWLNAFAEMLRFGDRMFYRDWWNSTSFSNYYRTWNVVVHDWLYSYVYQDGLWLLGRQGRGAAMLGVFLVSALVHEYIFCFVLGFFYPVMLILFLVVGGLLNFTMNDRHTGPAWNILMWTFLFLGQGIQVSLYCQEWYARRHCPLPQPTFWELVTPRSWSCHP
Experiment: Inhibition of Acyl-CoA: Cholesterol Acyltransferase (ACAT) in Hepatic Microsomes (In Vitro Assay)
Format: biochemical, rat (male Sprague Dawley)
Details: 75 μM 14C-oleoyl-CoA, pH 7.4, 37° C., 10 min, read-out: ACAT Inhibitory Activity (In Vitro) (IC50)
Method: A. Assay of the Inhibition of Acyl-CoA: Cholesterol Acyltransferase (ACAT) in Hepatic Microsomes (In Vitro Assay)
The ability of the compounds to inhibit ACAT, the enzyme responsible for the intracellular synthesis of cholesteryl esters, was tested as follows. Male Sprague Dawley rats weighing 150-300 g, were fed rat chow ad libitum. The animals were fasted for twenty-four hours prior to being euthanized by CO2. The livers were perfused in situ with 50 ml of cold 0.25 sucrose, excised, and homogenized in three volumes of 0.1M phosphate buffer, pH 7.4, that contained 0.5 mM EDTA (ethylenediamine-tetraacetic acid), 1.0 mM glutathione, 0.25M sucrose and […] leupeptin. Microsomes were obtained by differential centrifugation; the supernatant from an initial spin at 15,000×g for 15 minutes was centrifuged at 105,000×g for 1 hour to pellet the microsomes. The microsomes were suspended in homogenization buffer, reisolated by centrifugation, and stored at -70° C. Microsomes were used within one month of preparation.
The control assay in a final volume of 200 μl consisted of 200 μg of microsomal protein, 75 μM ^14 C-oleoyl-CoA (10,000 dpm/nmol) in 0.1M phosphate, pH 7.4, that contained 1 mM glutathione. Compounds were added in 5 μl of DMSO (dimethyl sulfoxide) and additional controls were run with DMSO only. All components, except the oleoyl-CoA, were preincubated for 15 min. at 37° C. prior to the initiation of the reaction by the addition of oleoyl-CoA. The assay was terminated after 10 min by the addition of 4 ml of chloroform:methanol (2:1, v/v). 20,000 dpm of ^3 H-cholesteryl oleate and 10 μg of unlabeled cholesteryl oleate and oleic acid were added as an internal standard and carriers, respectively. After allowing 10 min. for lipid extraction, the samples were centrifuged at 1,000×g for 10 min to separate the solvent layers. The chloroform layer containing the neutral lipids was spotted onto a Baker SI250-Pa silica gel TLC plate and the plate developed using a hexane:diethyl ether:acetic acid (170:30:1) v/v/v) mobile phase. The lipids were visualized by their interaction with iodine vapor and the cholesteryl ester spot was scraped into a scintillation vial and counted. The specific activity of ACAT in the control incubation averaged 260 pmol/min/mg microsomal protein. The data obtained are expressed as the concentration at which ACAT activity is inhibited by 50% (IC50).

| SMILES | IC50 [nM] |
| --- | --- |
| CSc1cc(C)nc(SC)c1NC(=O)C(Sc1ccc(F)cc1)c1ccc(C(F)(F)F)cc1 (stereo not drawn) [Example 393, N-[2,4-bis(methylthio)-6-methyl-3-pyridyl]-α-(4-fluoro-phenylthio)-4-trifluoromethyl-phenylacetamide] | < 1000 |
| COc1ccc(SC(C(=O)Nc2c(SC)cc(C)nc2SC)c2ccc(C(F)(F)F)cc2)cc1 (stereo not drawn) [Example 394, N-[2,4-bis(methylthio)-6-methyl-3-pyridyl]-α-(4-methoxy-phenylthio)-4-trifluoromethyl-phenylacetamide] | < 1000 |
| CCCCCCSC(C(=O)Nc1c(SC)cc(C)nc1SC)c1ccc(C(C)C)cc1 (stereo not drawn) [Example 403, N-[2,4-bis(methylthio)-6-methyl-3-pyridyl]-α-hexylthio-4-isopropylphenylacetamide] | < 1000 |
| CSc1cc(C)nc(SC)c1NC(=O)C(SCc1ccc(Cl)cc1)c1ccc(C(C)C)cc1 (stereo not drawn) [Example 410, N-[2,4-bis(methylthio)-6-methyl-3-pyridyl]-α-(4-chloro-benzylthio)-4-isopropylphenylacetamide] | < 1000 |
| CCCCOc1ccc(CSC(C(=O)Nc2c(SC)cc(C)nc2SC)c2ccc(C(C)C)cc2)cc1 (stereo not drawn) [Example 411, N-[2,4-bis(methylthio)-6-methyl-3-pyridyl]-α-(4-butoxy-benzylthio)-4-isopropylphenylacetamide] | < 1000 |
| CCCCCCSC(C(=O)Nc1c(SC)cc(C)nc1SC)c1ccc(C(C)(C)C)cc1 (stereo not drawn) [Example 431, N-[2,4-bis(methylthio)-6-methyl-3-pyridyl]-α-hexylthio-4-tert-butylphenylacetamide] | < 1000 |
| CSc1cc(C)nc(SC)c1NC(=O)C(SCc1ccccc1)c1ccc(C(C)(C)C)cc1 (stereo not drawn) [Example 435, N-[2,4-bis(methylthio)-6-methyl-3-pyridyl]-α-benzylthio-4-tert-butylphenylacetamide] | < 1000 |
| CSc1cc(C)nc(SC)c1NC(=O)C(SCc1ccc(Cl)cc1)c1ccc(C(C)(C)C)cc1 (stereo not drawn) [Example 437, N-[2,4-bis(methylthio)-6-methyl-3-pyridyl]-α-(4-chloro-benzylthio)-4-tert-butylphenylacetamide] | < 1000 |
| CSc1cc(C)nc(SC)c1NC(=O)C(SCc1ccc(C(C)(C)C)cc1)c1ccc(C(C)(C)C)cc1 (stereo not drawn) [Example 439, N-[2,4-bis(methylthio)-6-methyl-3-pyridyl]-α-(4-tert-butyl-benzylthio)-4-tert-butylphenylacetamide] | < 1000 |
| CSc1cc(C)nc(SC)c1NC(=O)C(SCc1ccccc1)c1ccc(-c2ccccc2)cc1 (stereo not drawn) [Example 463, N-[2,4-bis(methylthio)-6-methyl-3-pyridyl]-α-benzylthio-4-biphenylacetamide] | < 1000 |
| CSc1cc(C)nc(SC)c1NC(=O)C(SCc1ccc(F)cc1)c1ccc(-c2ccccc2)cc1 (stereo not drawn) [Example 464, N-[2,4-bis(methylthio)-6-methyl-3-pyridyl]-α-(4-fluoro-benzylthio)-4-biphenylacetamide] | < 1000 |
| COc1ccc(CSC(C(=O)Nc2c(SC)cc(C)nc2SC)c2ccc(-c3ccccc3)cc2)cc1 (stereo not drawn) [Example 465, N-[2,4-bis(methylthio)-6-methyl-3-pyridyl]-α-(4-methoxy-benzylthio)-4-biphenylacetamide] | < 1000 |
| CCCCOc1ccc(CSC(C(=O)Nc2c(SC)cc(C)nc2SC)c2ccc(-c3ccccc3)cc2)cc1 (stereo not drawn) [Example 467, N-[2,4-bis(methylthio)-6-methyl-3-pyridyl]-α-(4-butoxy-benzylthio)-4-biphenylacetamide] | < 1000 |
| CSc1cc(C)nc(SC)c1NC(=O)C(SCc1cccnc1)c1ccc(-c2ccccc2)cc1 (stereo not drawn) [Example 484, N-[2,4-bis(methylthio)-6-methyl-3-pyridyl]-α-(3-pyridyl-methylthio)-4-biphenylacetamide] | < 1000 |
| CCCCCCSC(C(=O)Nc1c(SC)cc(C)nc1SC)c1ccc([N+](=O)[O-])cc1 (stereo not drawn) [Example 487, N-[2,4-bis(methylthio)-6-methyl-3-pyridyl]-α-hexylthio-4-nitro-phenylacetamide] | < 1000 |
| CCCCCCSC(C(=O)Nc1c(SC)cc(C)nc1SC)c1ccc2c(c1)OCO2 (stereo not drawn) [Example 515, N-[2,4-bis(methylthio)-6-methyl-3-pyridyl]-α-hexylthio-3,4-methylenedioxyphenylacetamide] | < 1000 |

From patent US5583147A, “Amides for the treatment of atherosclerosis” (The Dupont Merck Pharmaceutical Company, priority 1994, dated 1996)
